One experiment deals with FaDu. Kind of experiment: Cytotoxicity against human FADU cells assessed as reduction in cell viability after 96 hrs by SRB assay. The class given is functional, cell-based. Background: Sulforhodamine B stains cellular protein and so reports cell mass.
For experiment [1], the system named is A2780. The experiment is described as follows: Cytotoxicity against human A2780 cells assessed as reduction in cell viability after 96 hrs by SRB assay. It counts as functional, cell-based. To be noted: A2780, 96 h.
Experiment [2] relates to HT-29. The experiment is described as follows: Cytotoxicity against human HT-29 cells assessed as reduction in cell viability after 96 hrs by SRB assay. It counts as functional, cell-based. To be noted: HT-29, 96 h.
The subject of the next experiment is SW-1736. Kind of experiment: Cytotoxicity against human SW1736 cells assessed as reduction in cell viability after 96 hrs by SRB assay. It counts as functional, cell-based. To be noted: SW-1736, 96 h.
For the next experiment, the system named is NIH3T3. Kind of experiment: Cytotoxicity against mouse NIH/3T3 cells assessed as reduction in cell viability after 96 hrs by SRB assay. It counts as cell-based. To be noted: NIH3T3, 96 h.
Experiment [3] has as its system HT-29. Kind of experiment: Potency index, ratio of hederagenin EC50 to test compound EC50 for cytotoxicity against human HT-29 cells. It counts as functional.
The test system of experiment [4] is HT-29. Kind of experiment: Potency index, ratio of betulinic acid EC50 to test compound EC50 for cytotoxicity against human HT-29 cells. The class given is functional.
Experiment [5] concerns HT-29. Kind of experiment: Cytotoxicity against human HT-29 cells assessed as cell membrane permeability at 2.5 to 5 uM after 24 hrs by acridine orange/propidium iodide staining based fluorescence microscopic method. It counts as functional.
In experiment [6] the test system is A2780. The experiment is described as follows: Cytotoxicity against human A2780 cells assessed as cell membrane permeability at 6 uM after 24 hrs by acridine orange/propidium iodide staining based fluorescence microscopic method. The class given is functional.
Experiment [7] deals with A2780. The experiment is described as follows: Induction of apoptosis in human A2780 cells assessed as increase in secondary necrotic cells at 6 uM after 24 hrs by Annexin V-FITC/propidium iodide staining-based flow cytometric analysis. It counts as functional, cell-based.

Each structure is given as a SMILES string. Activity calls are given as the source filed them. The rule behind the calls is not given here.

For `CC1(C)CC[C@]2(C(=O)N3CCCC3)CC[C@]3(C)C(=CC[C@@H]4[C@@]5(C)CC[C@H](O)[C@@](C)(CO)[C@@H]5CC[C@]43C)[C@@H]2C1`, the EC50 (usually the concentration that produces a half-maximal response) with FaDu was determined as 2.8 µM; in the experiment on A2780 [1], 3 µM; with HT-29 [2] it was 1.2 µM; with SW-1736, 3.6 µM; in the experiment on NIH3T3 it was 2.2 µM. Also, the figures for the “Ratio EC50” value in the experiment on HT-29 [3] and in the experiment on HT-29 [4] were 30 and 15, respectively. Moreover, the result in the experiment on HT-29 [5], with A2780 [6] and in the experiment with A2780 [7] was Active.

For the origin of these results see ChEMBL document CHEMBL4340520, “Hederagenin amide derivatives as potential antiproliferative agents” (Eur J Med Chem, 2019).
